Measurements: ChEMBL document CHEMBL2073901, “Enhancement of doxorubicin activity in multidrug-resistant cells by mefloquine” (Methods Find Exp Clin Pharmacol, 2000)

Assays:
[1] = target: T1, ATP-dependent translocase ABCB1 (Homo sapiens, UniProt P08183); test: TP_TRANSPORTER: increase in Rhodamine 123 intracellular accumulation (R123: 10 uM, Mefloquine: 10 uM) in K562/DOX cells; type: functional, cell-based; conditions: k562/adr
[2] = target: T1, ATP-dependent translocase ABCB1; test: TP_TRANSPORTER: inhibition of Azidopine photoaffinity labelling (Azidopine: 0.1 uM, Mefloquine: 10 uM) in membranes from K562/DOX cells; type: functional, cell membranes, Membrane; conditions: k562/adr
[3] = target: T1, ATP-dependent translocase ABCB1; test: TP_TRANSPORTER: intracellular accumulation in K562 and K562/DXR cells; type: functional, cell-based

T1 sequence (P08183 whole entry): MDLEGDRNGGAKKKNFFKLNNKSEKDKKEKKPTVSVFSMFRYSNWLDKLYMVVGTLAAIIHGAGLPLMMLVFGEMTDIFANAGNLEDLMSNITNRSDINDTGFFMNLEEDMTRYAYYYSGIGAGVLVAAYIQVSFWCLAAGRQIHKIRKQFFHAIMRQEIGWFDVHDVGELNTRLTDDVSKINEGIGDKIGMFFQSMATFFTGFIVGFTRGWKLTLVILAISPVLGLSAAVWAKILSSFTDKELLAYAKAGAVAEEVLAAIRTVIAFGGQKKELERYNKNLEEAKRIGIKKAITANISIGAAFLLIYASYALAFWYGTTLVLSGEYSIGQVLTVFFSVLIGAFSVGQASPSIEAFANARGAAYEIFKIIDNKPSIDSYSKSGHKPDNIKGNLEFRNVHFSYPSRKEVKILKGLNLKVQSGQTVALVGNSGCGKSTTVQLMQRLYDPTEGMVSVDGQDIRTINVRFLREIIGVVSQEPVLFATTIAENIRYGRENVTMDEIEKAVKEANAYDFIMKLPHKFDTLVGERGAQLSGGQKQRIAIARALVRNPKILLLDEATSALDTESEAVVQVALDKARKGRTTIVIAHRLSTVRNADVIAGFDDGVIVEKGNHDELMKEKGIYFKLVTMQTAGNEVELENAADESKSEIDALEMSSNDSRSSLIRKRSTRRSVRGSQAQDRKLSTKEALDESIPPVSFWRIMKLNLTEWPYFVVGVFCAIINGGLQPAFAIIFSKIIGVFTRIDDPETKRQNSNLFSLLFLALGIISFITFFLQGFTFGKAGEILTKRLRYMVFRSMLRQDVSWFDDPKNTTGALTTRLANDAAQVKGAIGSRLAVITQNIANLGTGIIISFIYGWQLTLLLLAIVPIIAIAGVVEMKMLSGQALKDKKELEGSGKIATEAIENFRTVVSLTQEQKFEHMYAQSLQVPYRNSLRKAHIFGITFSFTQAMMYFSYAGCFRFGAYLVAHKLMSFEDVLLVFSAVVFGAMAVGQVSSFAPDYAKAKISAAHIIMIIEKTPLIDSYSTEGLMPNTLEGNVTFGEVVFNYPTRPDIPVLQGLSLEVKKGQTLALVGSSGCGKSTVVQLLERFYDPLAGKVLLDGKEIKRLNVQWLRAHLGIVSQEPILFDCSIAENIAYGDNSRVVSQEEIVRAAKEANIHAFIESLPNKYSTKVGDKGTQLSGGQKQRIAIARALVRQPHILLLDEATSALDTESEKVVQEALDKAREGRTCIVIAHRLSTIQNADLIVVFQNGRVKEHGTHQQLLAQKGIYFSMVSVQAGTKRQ

Activity [1]	Activity [2]	Activity [3]	Structure (SMILES)
inhibitor [+]	inhibitor [+]		OC(c1cc(C(F)(F)F)nc2c(C(F)(F)F)cccc12)C1CCCCN1 (stereo not drawn) [MEFLOQUINE]
		substrate [+]	COC(=O)c1ccccc1-c1c2ccc(=N)cc-2oc2cc(N)ccc12.Cl [RHODAMINE123]
